Values after ≈ are worked out from the molar mass of the structure shown.
Experiments:
Escherichia coli [1] = experiment: Bactericidal activity against Escherichia coli bronchi isolate after 24 hr by NCCLS dilution tube method; type: functional
Pseudomonas aeruginosa [2] = experiment: Bactericidal activity against Pseudomonas aeruginosa PTCC 1431 after 24 hr by NCCLS dilution tube method; type: functional; conditions: PTCC 1431, 24 h
Pseudomonas aeruginosa [3] = experiment: Bactericidal activity against Pseudomonas aeruginosa urine isolate after 24 hr by NCCLS dilution tube method; type: functional
[4] = Octanol-water partition coefficient, log D of the compound at pH 7.4 after 6 hr by shake flask method; type: physicochemical
[5] = tested on: Staphylococcus saprophyticus; experiment: Bactericidal activity against Staphylococcus saprophyticus bronchi isolate after 24 hr by NCCLS dilution tube method; type: functional
Klebsiella pneumoniae [6] = experiment: Bactericidal activity against Klebsiella pneumoniae PTCC 1053 after 24 hr by NCCLS dilution tube method; type: functional; conditions: PTCC 1053, 24 h
Klebsiella pneumoniae [7] = experiment: Bactericidal activity against Klebsiella pneumoniae wound isolate after 24 hr by NCCLS dilution tube method; type: functional
[8] = tested on: Staphylococcus epidermidis; experiment: Bactericidal activity against Staphylococcus epidermidis eye isolate after 24 hr by NCCLS dilution tube method; type: functional
Pseudomonas aeruginosa [9] = experiment: Bactericidal activity against Pseudomonas aeruginosa wound isolate after 24 hr by NCCLS dilution tube method; type: functional
Acinetobacter baumannii [10] = experiment: Bactericidal activity against multidrug-resistant Acinetobacter baumannii wound isolate after 24 hr by NCCLS dilution tube method; type: functional
Acinetobacter baumannii [11] = experiment: Bactericidal activity against multidrug-resistant Acinetobacter baumannii urine isolate after 24 hr by NCCLS dilution tube method; type: functional
Staphylococcus aureus [12] = experiment: Bactericidal activity against Staphylococcus aureus PTCC 1074 after 24 hr by NCCLS dilution tube method; type: functional; conditions: PTCC 1074, 24 h
Acinetobacter baumannii [13] = experiment: Bactericidal activity against multidrug-resistant Acinetobacter baumannii bronchi isolate after 24 hr by NCCLS dilution tube method; type: functional
Escherichia coli [14] = experiment: Bactericidal activity against Escherichia coli PTCC 1338 after 24 hr by NCCLS dilution tube method; type: functional; conditions: PTCC 1338, 24 h
Klebsiella pneumoniae [15] = experiment: Bactericidal activity against Klebsiella pneumoniae urine isolate after 24 hr by NCCLS dilution tube method; type: functional
Staphylococcus aureus [16] = experiment: Bactericidal activity against Staphylococcus aureus urine isolate after 24 hr by NCCLS dilution tube method; type: functional
Staphylococcus aureus [17] = experiment: Bactericidal activity against Staphylococcus aureus wound isolate after 24 hr by NCCLS dilution tube method; type: functional
Escherichia coli [18] = experiment: Bactericidal activity against Escherichia coli urine isolate after 24 hr by NCCLS dilution tube method; type: functional

logD at 6 h [4]	SMILES	MBC (Escherichia coli [1]) [µg/mL]	MBC (Pseudomonas aeruginosa [2]) [µg/mL]	MBC (Pseudomonas aeruginosa [3]) [µg/mL]	MBC [5] [µg/mL]	MBC (Klebsiella pneumoniae [6]) [µg/mL]	MBC (Klebsiella pneumoniae [7]) [µg/mL]	MBC [8] [µg/mL]	MBC (Pseudomonas aeruginosa [9]) [µg/mL]	MBC (Acinetobacter baumannii [10]) [µg/mL]	MBC (Acinetobacter baumannii [11]) [µg/mL]	MBC (Staphylococcus aureus [12]) [µg/mL]	MBC (Acinetobacter baumannii [13]) [µg/mL]	MBC (Escherichia coli [14]) [µg/mL]	MBC (Klebsiella pneumoniae [15]) [µg/mL]	MBC (Staphylococcus aureus [16]) [µg/mL]	MBC (Staphylococcus aureus [17]) [µg/mL]	MBC (Escherichia coli [18]) [µg/mL]
1.09	CCCn1cnc2c3c(Cl)c4ccccc4nc3ccc21		> 100			25 (≈ 84.5 µM)						6.25 (≈ 21.1 µM)		25 (≈ 84.5 µM)				
1.48	CCCCCn1cnc2c3c(Cl)c4ccccc4nc3ccc21		> 100			25 (≈ 77.2 µM)						12.5 (≈ 38.6 µM)		50 (≈ 154 µM)				
	CC1(C)S[C@@H]2[C@H](NC(=O)[C@H](N)c3ccc(O)cc3)C(=O)N2[C@H]1C(=O)O [AMOXICILLIN]	> 100		> 100	> 100		> 100	> 100	> 100	> 100	> 100		> 100		> 100	> 100	> 100	76.2 (≈ 209 µM)
	C=CC1=C(C(=O)O)N2C(=O)[C@@H](NC(=O)/C(=N\OCC(=O)O)c3csc(N)n3)[C@H]2SC1 [CEFIXIME]	23.1 (≈ 50.9 µM)		20 (≈ 44.1 µM)	24.5 (≈ 54 µM)		44.6 (≈ 98.4 µM)	28.7 (≈ 63.3 µM)	96.9 (≈ 214 µM)	82.8 (≈ 183 µM)	75 (≈ 165 µM)		87.5 (≈ 193 µM)		20.8 (≈ 45.9 µM)	45.2 (≈ 99.7 µM)	33.1 (≈ 73 µM)	12.1 (≈ 26.7 µM)
	CO/N=C(\C(=O)N[C@@H]1C(=O)N2C(C(=O)O)=C(COC(C)=O)CS[C@H]12)c1csc(N)n1 [CEFOTAXIME]	24.5 (≈ 53.8 µM)		16.3 (≈ 35.8 µM)	95 (≈ 209 µM)		51.8 (≈ 114 µM)	75 (≈ 165 µM)	81.2 (≈ 178 µM)	95.8 (≈ 210 µM)	90.6 (≈ 199 µM)		96.9 (≈ 213 µM)		25 (≈ 54.9 µM)	77.2 (≈ 169 µM)	12.7 (≈ 27.9 µM)	17.3 (≈ 38 µM)
	CC(C)(O/N=C(\C(=O)N[C@@H]1C(=O)N2C(C(=O)[O-])=C(C[n+]3ccccc3)CS[C@H]12)c1csc(N)n1)C(=O)O [CEFTAZIDIME]	45.4 (≈ 83.1 µM)		43.8 (≈ 80.1 µM)	82.4 (≈ 151 µM)		92.8 (≈ 170 µM)	73.7 (≈ 135 µM)	90.6 (≈ 166 µM)	91.7 (≈ 168 µM)	93.7 (≈ 171 µM)		90.6 (≈ 166 µM)		22.9 (≈ 41.9 µM)	80.2 (≈ 147 µM)	63.5 (≈ 116 µM)	14.4 (≈ 26.3 µM)
	NC[C@H]1O[C@H](O[C@H]2[C@H](O)[C@@H](O[C@H]3O[C@H](CO)[C@@H](O)[C@H](N)[C@H]3O)[C@H](N)C[C@@H]2N)[C@H](O)[C@@H](O)[C@@H]1O [KANAMYCIN]	85.5 (≈ 176 µM)		47.9 (≈ 98.9 µM)	40 (≈ 82.6 µM)		16 (≈ 33 µM)	25 (≈ 51.6 µM)	48.4 (≈ 99.9 µM)	> 100	> 100		> 100		12.5 (≈ 25.8 µM)	55.1 (≈ 114 µM)	17.9 (≈ 36.9 µM)	84.4 (≈ 174 µM)
	CCn1cc(C(=O)O)c(=O)c2ccc(C)nc21 [NALIDIXIC ACID]	22.7 (≈ 97.7 µM)		> 100	> 100		25.9 (≈ 112 µM)	> 100	> 100	> 100	> 100		> 100		29.1 (≈ 125 µM)	> 100	81.6 (≈ 351 µM)	24 (≈ 103 µM)
	CCn1cc(C(=O)O)c(=O)c2cc(F)c(N3CCNCC3)cc21 [NORFLOXACIN]	12.2 (≈ 38.2 µM)		13.7 (≈ 42.9 µM)	50 (≈ 157 µM)		50 (≈ 157 µM)	75 (≈ 235 µM)	25.8 (≈ 80.8 µM)	41.7 (≈ 131 µM)	62.5 (≈ 196 µM)		37.5 (≈ 117 µM)		11.5 (≈ 36 µM)	11.5 (≈ 36 µM)	9.8 (≈ 30.7 µM)	7.3 (≈ 22.9 µM)
	CN(C)[C@@H]1C(O)=C(C(N)=O)C(=O)[C@@]2(O)C(O)=C3C(=O)c4c(O)cccc4[C@@](C)(O)[C@H]3C[C@@H]12 [TETRACYCLINE]			21.2 (≈ 47.7 µM)			30.3 (≈ 68.2 µM)	81.2 (≈ 183 µM)	54.7 (≈ 123 µM)		87.5 (≈ 197 µM)				26 (≈ 58.5 µM)	26.3 (≈ 59.2 µM)	12.5 (≈ 28.1 µM)	20.4 (≈ 45.9 µM)
	NC[C@H]1O[C@H](O[C@H]2[C@H](O)[C@@H](O[C@H]3O[C@H](CO)[C@@H](O)[C@H](N)[C@H]3O)[C@H](N)C[C@@H]2N)[C@H](N)C[C@@H]1O [TOBRAMYCIN]	74 (≈ 158 µM)		13.7 (≈ 29.3 µM)	25 (≈ 53.5 µM)		24.1 (≈ 51.5 µM)	50 (≈ 107 µM)	26.5 (≈ 56.7 µM)	83.3 (≈ 178 µM)	78.1 (≈ 167 µM)		68 (≈ 145 µM)		28.1 (≈ 60.1 µM)	11.8 (≈ 25.2 µM)	17.3 (≈ 37 µM)	64.3 (≈ 138 µM)

SMILES	logD at 6 h [4]	MBC (Escherichia coli [1]) [µg/mL]	MBC (Pseudomonas aeruginosa [2]) [µg/mL]	MBC (Pseudomonas aeruginosa [3]) [µg/mL]	MBC [5] [µg/mL]	MBC (Klebsiella pneumoniae [6]) [µg/mL]	MBC (Klebsiella pneumoniae [7]) [µg/mL]	MBC [8] [µg/mL]	MBC (Pseudomonas aeruginosa [9]) [µg/mL]	MBC (Acinetobacter baumannii [10]) [µg/mL]	MBC (Acinetobacter baumannii [11]) [µg/mL]	MBC (Staphylococcus aureus [12]) [µg/mL]	MBC (Acinetobacter baumannii [13]) [µg/mL]	MBC (Escherichia coli [14]) [µg/mL]	MBC (Klebsiella pneumoniae [15]) [µg/mL]	MBC (Staphylococcus aureus [16]) [µg/mL]	MBC (Staphylococcus aureus [17]) [µg/mL]	MBC (Escherichia coli [18]) [µg/mL]
Cn1cnc2c3c(Cl)c4ccccc4nc3ccc21	0.52	89.3 (≈ 334 µM)	75 (≈ 280 µM)	85 (≈ 317 µM)	93.7 (≈ 350 µM)	12.5 (≈ 46.7 µM)	85.7 (≈ 320 µM)	73.7 (≈ 275 µM)	75 (≈ 280 µM)	2 (≈ 7.47 µM)	10.9 (≈ 40.7 µM)	3.1 (≈ 11.6 µM)	4.7 (≈ 17.6 µM)	6.25 (≈ 23.3 µM)	47.9 (≈ 179 µM)	91 (≈ 340 µM)	72.3 (≈ 270 µM)	56.4 (≈ 211 µM)

From ChEMBL document CHEMBL3046735, “11-Chloro-3-methyl-3H-imidazo[4,5-a]acridine (CMIA) as a potent and selective antimicrobial agent against clinical isolates of highly antibiotic-resistant Acinetobacter baumannii” (Med Chem Res, 2012)
